Data taken from patent US20110143999A1, “FOWLICIDINS AND METHODS OF ITS USE” (priority 2005, published 2011).
≈ marks a conversion by molar mass, not a printed value. Where two headings read alike, the source gives them in different places. Residues, ends and D or L forms follow the SMILES beside them.

Assays:
S. aureus ATCC 25923 [1] = system: S. aureus ATCC 25923
[2] = system: S. typhimurium ATCC 14028
E. coli ATCC 25922 [3] = system: E. coli ATCC 25922
LPS from E. coli O111:B4 = assay: LPS binding assay (chromogenic Limulus amebocyte lysate); conditions: Table V; 50% inhibition of LPS-mediated procoagulant activation
[4] = system: L. monocytogenes ATCC 19115; assay: Modified broth microdilution assay (1% MHB); conditions: Table V, Example 2, listed as fowlicidin-1-K^7L^12K^14L^16K^18
[5] = system: three Gram-negative and four Gram-positive bacteria; conditions: Example 3; 20% TSB, 25 mM NaHCO3, 1 mM NaH2PO4, with or without 100 mM NaCl
K. pneumoniae ATCC 13883 [6] = system: K. pneumoniae ATCC 13883
[7] = system: S. typhimurium DT104 ATCC 700408
[8] = system: E. coli O157:H7 ATCC 700728; conditions: 1% MHB
[9] = system: S. aureus (MRSA) ATCC BAA-39
[10] = system: S. aureus (MRSA) ATCC BAA-39; remark: listed apart in the source
[11] = system: S. aureus (MRSA) ATCC 43300
S. aureus ATCC 25923 [12] = system: S. aureus ATCC 25923; remark: listed apart in the source
[13] = system: S. typhimurium ATCC 14028; remark: listed apart in the source
K. pneumoniae ATCC 13883 [14] = system: K. pneumoniae ATCC 13883; remark: listed apart in the source
[15] = system: S. typhimurium DT104 ATCC 700408; remark: listed apart in the source
E. coli ATCC 25922 [16] = system: E. coli ATCC 25922; remark: listed apart in the source
[17] = system: S. enteritidis ATCC 13076
[18] = system: Gram-negative and Gram-positive bacteria; conditions: Example 4, summary of Table VII
MDCK cells [19] = system: MDCK cells
[20] = system: L. monocytogenes ATCC 19115
MDCK cells [21] = assay: Cytotoxicity assay (alamarBlue)

Structure (SMILES): CC[C@H](C)[C@H](NC(=O)[C@H](C)NC(=O)[C@H](CCCNC(=N)N)NC(=O)[C@H](Cc1ccc(O)cc1)NC(=O)[C@H](CC(C)C)NC(=O)[C@H](CCCCN)NC(=O)[C@H](Cc1ccc(O)cc1)NC(=O)[C@H](CC(C)C)NC(=O)[C@H](C)NC(=O)[C@H](CCCCN)NC(=O)[C@@H](NC(=O)[C@H](CC(C)C)NC(=O)[C@H](CCCNC(=N)N)NC(=O)[C@@H](NC(=O)[C@@H](NC(=O)[C@H](CC(C)C)NC(=O)[C@H](CCCCN)NC(=O)[C@H](Cc1c[nH]c2ccccc12)NC(=O)[C@@H](NC(=O)[C@H](CCCNC(=N)N)NC(=O)[C@H](CCCCN)NC(=O)[C@@H](NC(=O)[C@@H](N)CCCNC(=N)N)C(C)C)C(C)C)C(C)C)[C@@H](C)CC)C(C)C)C(=O)N[C@@H](CCCCN)C(=O)N[C@@H](CCCCN)C(=O)N[C@@H](CCCCN)C(=O)O [Fowl-1-KLKLK] (H-RVKRVWKLVIRLVKALYKLYRAIKKK-OH; N-terminus assumed)
- Antibacterial Activity (MIC, μM) S. aureus (S. aureus ATCC 25923 [1]): 1.9 µM
- Antibacterial Activity (MIC, μM) Salmonella [2]: 1.9 µM
- EC50: 11 µM
- Antibacterial Activity (MIC, μM) E. coli (E. coli ATCC 25922 [3]; Table V, Example 2, 1% MHB, listed as fowlicidin-1-K^7L^12K^14L^16K^18): > 7.6 µM
- EC50 (LPS from E. coli O111:B4): 6 µM
- Antibacterial Activity (MIC, μM) Listeria [4]: > 7.6 µM

Structure (SMILES): CC[C@H](C)[C@H](NC(=O)[C@@H](NC(=O)[C@@H](NC(=O)[C@@H](NC(=O)[C@@H](NC(=O)[C@H](CCCCN)NC(=O)[C@@H]1CCCN1)C(C)C)[C@@H](C)O)[C@@H](C)CC)[C@@H](C)O)C(=O)N[C@@H](CCC(N)=O)C(=O)NCC(=O)N[C@@H](CO)C(=O)N[C@@H](C)C(=O)N[C@@H](CCCNC(=N)N)C(=O)N[C@@H](Cc1ccccc1)C(=O)O [Fowl-2(19-31)] (H-PKVTITIQGSARF-OH; N-terminus and C-terminus assumed)
- MIC (range over bacteria tested) [5]: > 32 µM

Structure (SMILES): CC[C@H](C)[C@H](NC(=O)[C@H](CCCCN)NC(=O)[C@H](CCCNC(=N)N)NC(=O)[C@H](CC(C)C)NC(=O)[C@H](Cc1ccccc1)NC(=O)[C@H](CCCNC(=N)N)NC(=O)CNC(=O)[C@H](Cc1ccccc1)NC(=O)[C@H](CCCNC(=N)N)NC(=O)CNC(=O)[C@H](CCCNC(=N)N)NC(=O)[C@H](CCC(N)=O)NC(=O)[C@@H](NC(=O)[C@@H](N)CC(C)C)C(C)C)C(=O)N[C@@H](CCCNC(=N)N)C(=O)N[C@@H](CCCNC(=N)N)C(=O)N[C@@H](Cc1ccccc1)C(=O)N[C@@H](CCCNC(=N)N)C(=O)N1CCC[C@H]1C(=O)N[C@@H](CCCCN)C(=O)N[C@H](C(=O)N[C@H](C(=O)N[C@H](C(=O)N[C@H](C(=O)N[C@H](C(=O)N[C@@H](CCC(N)=O)C(=O)NCC(=O)N[C@@H](CO)C(=O)N[C@@H](C)C(=O)N[C@@H](CCCNC(=N)N)C(=O)N[C@@H](Cc1ccccc1)C(=O)O)[C@@H](C)CC)[C@@H](C)O)[C@@H](C)CC)[C@@H](C)O)C(C)C [Fowlicidin-2] (H-LVQRGRFGRFLRKIRRFRPKVTITIQGSARF-OH; N-terminus and C-terminus assumed)
- MIC (S. aureus ATCC 25923 [1]): 0.66 µM (≈ 2.48 µg/mL)
- MIC (K. pneumoniae ATCC 13883 [6]): 0.66 µM (≈ 2.48 µg/mL)
- MIC (range over bacteria tested) [5]: 0.5 to 2 µM
- MIC [7]: 0.66 µM (≈ 2.48 µg/mL)
- MIC ([8]; NaCl 0 mM): 0.66 µM (≈ 2.48 µg/mL)
- MIC ([8]; NaCl 100 mM): 1.33 µM (≈ 5 µg/mL)
- MIC [9]: 0.66 µM (≈ 2.48 µg/mL)
- MIC (E. coli ATCC 25922 [3]): 2.66 µM (≈ 10 µg/mL)

Structure (SMILES): CC[C@H](C)[C@H](NC(=O)CNC(=O)[C@H](C)NC(=O)[C@H](C)NC(=O)[C@@H](NC(=O)[C@@H](NC(=O)[C@H](CC(N)=O)NC(=O)[C@@H](NC(=O)[C@H](C)NC(=O)[C@@H](NC(=O)[C@@H]1CCCN1C(=O)[C@@H](NC(=O)[C@H](CC(C)C)NC(=O)[C@@H]1CCCN1C(=O)[C@H](Cc1c[nH]c2ccccc12)NC(=O)[C@H](Cc1ccccc1)NC(=O)[C@H](CCCNC(=N)N)NC(=O)[C@@H](N)CCCCN)C(C)C)C(C)C)[C@@H](C)CC)[C@@H](C)O)C(C)C)C(=O)N[C@@H](CC(N)=O)C(=O)N[C@@H](CC(C)C)C(=O)N[C@@H](Cc1ccc(O)cc1)C(=O)N[C@@H](CCCCN)C(=O)N[C@@H](C)C(=O)N[C@H](C(=O)N[C@@H](CCCNC(=N)N)C(=O)N[C@@H](CCCNC(=N)N)C(=O)N[C@@H](CCCCN)C(=O)O)[C@@H](C)CC [Fowlicidin-3] (H-KRFWPLVPVAINTVAAGINLYKAIRRK-OH; N-terminus and C-terminus assumed)
- MIC [10]: 1 µM (≈ 3.1 µg/mL)
- MIC [11]: 1 µM (≈ 3.1 µg/mL)
- MIC (S. aureus ATCC 25923 [12]): 1 µM (≈ 3.1 µg/mL)
- MIC [13]: 2 µM (≈ 6.19 µg/mL)
- MIC (K. pneumoniae ATCC 13883 [14]): 1 µM (≈ 3.1 µg/mL)
- MIC [15]: 2 µM (≈ 6.19 µg/mL)
- MIC (E. coli ATCC 25922 [16]): 2 µM (≈ 6.19 µg/mL)
- MIC [17]: 2 µM (≈ 6.19 µg/mL)
- MICs (range over bacteria tested) [18]: 1 to 2 µM
- fold reduction in toxicity in the presence of 10% FBS (MDCK cells [19]): 2 fold
- MIC [20]: 2 µM (≈ 6.19 µg/mL)
- cytotoxicity (EC50) fold higher than MICs (MDCK cells [21]; in the presence of serum, against all bacterial strains tested): 10-to 40 fold
- EC50 (MDCK cells [21]; read-out: 50% effective concentration (EC50), MDCK cell killing, Example 4, without serum, FIG. 20A): 12 µM
